Tested on: rat small-intestinal brush border membrane vesicles
Test: Inhibitory effect on 33PO4 uptake into rat small-intestinal brush border membrane vesicles (rapid filtration method)
Type: biochemical
Settings: 33PO4 uptake into rat small-intestinal BBMVs; test compound 1 µM; reacted for 60 seconds
Procedure, shortened: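 Uptake of ^33PO4 was measured by rapid filtration and liquid scintillation counting of filter-retained vesicles, after quenching with ice-cold 110 mM NaCl/1 mM KH2PO4/10 mM HEPES pH 7.5. Vesicles were brush border membranes from the upper small intestine of female Wistar rats aged 4–5 weeks.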

Compared with `C[C@]12CCCN1N(Cc1cc(F)ccc1F)C(=O)C(C(=O)Nc1ccc(C(F)(F)F)cc1-c1ccc(C(F)(F)F)nc1)=C2O` [Example 172], `C[C@]12CCCN1N(Cc1ccc(F)cc1F)C(=O)C(C(=O)Nc1ccc(C(F)(F)F)cc1-c1ccc(C(F)(F)F)nc1)=C2O` [Example 173] is higher in “Rate of uptake inhibition (%) (1 µM)” value: 72% for the first, 73% for the second.

Compared with `C[C@]12CCCN1N(Cc1cccc(F)c1Cl)C(=O)C(C(=O)Nc1cc(F)c(Br)c(F)c1)=C2O` [Example 174], `C[C@]12CCCN1N(Cc1ccc(F)cc1F)C(=O)C(C(=O)Nc1cc(F)c(Br)c(F)c1)=C2O` [Example 192] is higher in “Rate of uptake inhibition (%) (1 µM)” value: 87% for the first, 88% for the second.

Going from `COc1cccc(CN2C(=O)C(C(=O)Nc3ccc(C(F)(F)F)cc3-c3ccc(C(F)(F)F)nc3)=C(O)[C@@]3(C)CCCN23)c1OC` [Example 175] to `COc1ccc(OC)c(CN2C(=O)C(C(=O)Nc3ccc(C(F)(F)F)cc3-c3ccc(C(F)(F)F)nc3)=C(O)[C@@]3(C)CCCN23)c1` [Example 176], the “Rate of uptake inhibition (%) (1 µM)” value falls from 85% to 75%.

Compared with `C[C@]12CCCN1N(Cc1cccc(OC(F)F)c1)C(=O)C(C(=O)Nc1ccc(C(F)(F)F)cc1-c1cc(C(F)(F)F)ncn1)=C2O` [Example 177], `C[C@]12CCCN1N(Cc1cccc(OC(F)(F)F)c1)C(=O)C(C(=O)Nc1ccc(C(F)(F)F)cc1-c1cc(C(F)(F)F)ncn1)=C2O` [Example 189] is lower in “Rate of uptake inhibition (%) (1 µM)” value: 85% for the first, 73% for the second.

Going from `C[C@]12CCCN1N(Cc1ccccc1C#N)C(=O)C(C(=O)Nc1ccc(C(F)(F)F)cc1-c1cc(C(F)(F)F)ncn1)=C2O` [Example 178] to `C[C@]12CCCN1N(Cc1ccccc1Cl)C(=O)C(C(=O)Nc1ccc(C(F)(F)F)cc1-c1cc(C(F)(F)F)ncn1)=C2O` [Example 180], the “Rate of uptake inhibition (%) (1 µM)” value falls from 81% to 75%.

Going from `C[C@]12CCCN1N(Cc1cccc(C#N)c1)C(=O)C(C(=O)Nc1ccc(C(F)(F)F)cc1-c1cc(C(F)(F)F)ncn1)=C2O` [Example 179] to `C[C@]12CCCN1N(Cc1cccc(Cl)c1)C(=O)C(C(=O)Nc1ccc(C(F)(F)F)cc1-c1cc(C(F)(F)F)ncn1)=C2O` [Example 181], the “Rate of uptake inhibition (%) (1 µM)” value rises from 83% to 85%.

First: C[C@]12CCCN1N(Cc1ccc(Cl)cc1)C(=O)C(C(=O)Nc1ccc(C(F)(F)F)cc1-c1cc(C(F)(F)F)ncn1)=C2O [Example 182]
Second: Cc1ccc(CN2C(=O)C(C(=O)Nc3ccc(C(F)(F)F)cc3-c3cc(C(F)(F)F)ncn3)=C(O)[C@@]3(C)CCCN23)cc1 [Example 187]
The “Rate of uptake inhibition (%) (1 µM)” value of the first is higher: 86% for the first, 80% for the second.

Going from `COC(=O)c1cccc(CN2C(=O)C(C(=O)Nc3ccc(C(F)(F)F)cc3-c3cc(C(F)(F)F)ncn3)=C(O)[C@@]3(C)CCCN23)c1` [Example 183] to `Cc1cccc(CN2C(=O)C(C(=O)Nc3ccc(C(F)(F)F)cc3-c3cc(C(F)(F)F)ncn3)=C(O)[C@@]3(C)CCCN23)c1` [Example 186], the “Rate of uptake inhibition (%) (1 µM)” value rises from 82% to 88%.

First: C[C@]12CCCN1N(Cc1ccc(F)c(Br)c1)C(=O)C(C(=O)Nc1ccc(C(F)(F)F)cc1-c1cc(C(F)(F)F)ncn1)=C2O [Example 184]
Second: C[C@]12CCCN1N(Cc1ccccc1)C(=O)C(C(=O)Nc1ccc(C(F)(F)F)cc1-c1cc(C(F)(F)F)ncn1)=C2O [Example 188]
The “Rate of uptake inhibition (%) (1 µM)” value of the first is lower: 79% for the first, 93% for the second.

Compared with `Cc1ccccc1CN1C(=O)C(C(=O)Nc2ccc(C(F)(F)F)cc2-c2cc(C(F)(F)F)ncn2)=C(O)[C@@]2(C)CCCN12` [Example 185], `C[C@]12CCCN1N(Cc1cc(F)ccc1F)C(=O)C(C(=O)Nc1cc(F)c(Br)c(F)c1)=C2O` [Example 193] is lower in “Rate of uptake inhibition (%) (1 µM)” value: 83% for the first, 82% for the second.

Going from `C[C@]12CCCN1N(Cc1cc(F)cc(F)c1)C(=O)C(C(=O)Nc1cc(F)c(Br)c(F)c1)=C2O` [Example 190] to `C[C@]12CCCN1N(Cc1ccc(F)c(F)c1)C(=O)C(C(=O)Nc1cc(F)c(Br)c(F)c1)=C2O` [Example 191], the “Rate of uptake inhibition (%) (1 µM)” value rises from 84% to 87%.

Reference: patent EP3928779A1 (Chugai Seiyaku Kabushiki Kaisha, priority 2014, dated 2016)
